# Measurements taken from ChEMBL document CHEMBL4311970 (Eur J Med Chem, 2019).
# Calls of active or inactive are those of the source. No cut-off for these calls is given here.
# Experiments:
# MCF7 = test: Antiproliferative activity against human MCF7 cells assessed as reduction in cell viability incubated for 72 hrs by SRB assay; type: functional, cell-based; conditions: MCF7, 72 h
# [1] = Cytotoxicity against human NHBE cells assessed as reduction in cell viability incubated for 72 hrs by SRB assay; type: cell-based
# [2] = target: T1, M-phase inducer phosphatase 3 (Homo sapiens) (UniProt P30307); test: Inhibition of recombinant human Cdc25C at 10 uM using OMFP as substrate preincubated for 5 to 8 mins and measured every 5 mins 60 mins by fluorescence based assay
# T1 sequence (whole entry): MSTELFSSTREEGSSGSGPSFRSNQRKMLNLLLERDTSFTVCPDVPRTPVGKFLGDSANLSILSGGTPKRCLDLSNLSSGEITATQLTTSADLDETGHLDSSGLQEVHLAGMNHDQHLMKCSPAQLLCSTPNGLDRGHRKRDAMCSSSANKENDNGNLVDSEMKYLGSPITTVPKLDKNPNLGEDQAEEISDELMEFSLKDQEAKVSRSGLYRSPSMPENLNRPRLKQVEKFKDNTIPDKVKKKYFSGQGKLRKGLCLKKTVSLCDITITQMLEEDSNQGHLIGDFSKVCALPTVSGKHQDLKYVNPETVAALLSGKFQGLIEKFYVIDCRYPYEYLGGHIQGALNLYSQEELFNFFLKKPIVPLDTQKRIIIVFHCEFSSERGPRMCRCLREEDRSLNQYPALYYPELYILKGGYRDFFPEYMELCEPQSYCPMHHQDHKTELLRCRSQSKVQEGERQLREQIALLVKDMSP
# KB = test: Antiproliferative activity against human KB cells assessed as reduction in cell viability incubated for 72 hrs by SRB assay; type: functional, cell-based
# A549 = test: Antiproliferative activity against human A549 cells assessed as reduction in cell viability incubated for 72 hrs by SRB assay; type: functional, cell-based; conditions: A549, 72 h
# [3] = target: T2, M-phase inducer phosphatase 1 (Homo sapiens) (UniProt P30304); test: Inhibition of recombinant human Cdc25A at 10 uM using OMFP as substrate preincubated for 5 to 8 mins and measured every 5 mins 60 mins by fluorescence based assay relative to control
# T2 sequence (whole entry): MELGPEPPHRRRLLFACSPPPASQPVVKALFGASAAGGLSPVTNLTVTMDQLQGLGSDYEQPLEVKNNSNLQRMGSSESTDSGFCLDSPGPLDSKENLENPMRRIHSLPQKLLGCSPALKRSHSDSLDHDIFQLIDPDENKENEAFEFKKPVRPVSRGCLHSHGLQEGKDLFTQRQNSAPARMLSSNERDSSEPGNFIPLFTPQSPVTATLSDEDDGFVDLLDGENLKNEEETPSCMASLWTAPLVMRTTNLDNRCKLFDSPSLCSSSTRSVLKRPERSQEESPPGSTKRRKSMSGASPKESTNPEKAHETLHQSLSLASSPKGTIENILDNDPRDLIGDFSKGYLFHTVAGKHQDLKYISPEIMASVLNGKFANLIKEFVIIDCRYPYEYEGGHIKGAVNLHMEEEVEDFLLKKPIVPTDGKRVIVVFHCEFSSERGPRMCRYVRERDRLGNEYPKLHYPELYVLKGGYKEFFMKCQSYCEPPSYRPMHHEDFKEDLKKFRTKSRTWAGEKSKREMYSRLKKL
# MDA-MB-231 = test: Antiproliferative activity against human MDA-MB-231 cells assessed as reduction in cell viability incubated for 72 hrs by SRB assay; type: functional, cell-based; conditions: MDA-MB-231, 72 h
# [4] = target: T3, M-phase inducer phosphatase 2 (Homo sapiens) (UniProt P30305); test: Inhibition of recombinant human Cdc25B at 10 uM using OMFP as substrate preincubated for 5 to 8 mins and measured every 5 mins 60 mins by fluorescence based assay
# T3 sequence (whole entry): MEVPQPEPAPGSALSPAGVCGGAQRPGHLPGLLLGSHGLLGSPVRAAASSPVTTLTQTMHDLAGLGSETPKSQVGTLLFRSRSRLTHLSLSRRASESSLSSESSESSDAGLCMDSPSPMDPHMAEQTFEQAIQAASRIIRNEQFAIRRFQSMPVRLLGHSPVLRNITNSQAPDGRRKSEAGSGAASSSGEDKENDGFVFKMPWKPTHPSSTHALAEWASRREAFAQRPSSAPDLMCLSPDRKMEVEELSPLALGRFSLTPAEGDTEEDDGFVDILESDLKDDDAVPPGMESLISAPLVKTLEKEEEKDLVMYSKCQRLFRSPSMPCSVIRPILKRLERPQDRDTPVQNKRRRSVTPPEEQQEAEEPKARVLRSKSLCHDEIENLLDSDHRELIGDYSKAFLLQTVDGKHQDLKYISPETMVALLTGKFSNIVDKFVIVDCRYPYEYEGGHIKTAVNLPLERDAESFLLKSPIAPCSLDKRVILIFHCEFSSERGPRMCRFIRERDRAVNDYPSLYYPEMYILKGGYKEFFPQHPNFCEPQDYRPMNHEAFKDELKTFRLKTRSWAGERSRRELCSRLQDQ
# [5] = Antiproliferative activity against human KBVIN cells assessed as reduction in cell viability incubated for 72 hrs by SRB assay; type: functional, cell-based
# Homo sapiens [6] = organism: Homo sapiens; test: Selectivity index, ratio of IC50 for recombinant human Cdc25B to IC50 for recombinant human Cdc25C
# [7] = target: T1, M-phase inducer phosphatase 3 (Homo sapiens); test: Potency index, ratio of IC50 of NSC663284 to IC50 of compound for inhibition of recombinant human Cdc25C using OMFP as substrate preincubated for 5 to 8 mins and measured every 5 mins 60 mins by fluorescence based assay
# [8] = target: T4, M-phase inducer phosphatase 2 (Homo sapiens, UniProt P30305); test: Inhibition of recombinant human Cdc25B using OMFP as substrate preincubated for 5 to 8 mins and measured every 5 mins 60 mins by fluorescence based assay
# T4 sequence (P30305 whole entry): T3 sequence (whole entry)
# Homo sapiens [9] = organism: Homo sapiens; test: Selectivity index, ratio of IC50 for recombinant human Cdc25A to IC50 for recombinant human Cdc25C
# [10] = target: T5, M-phase inducer phosphatase 1 (Homo sapiens, UniProt P30304); test: Inhibition of recombinant human Cdc25A using OMFP as substrate preincubated for 5 to 8 mins and measured every 5 mins 60 mins by fluorescence based assay
# T5 sequence (P30304 whole entry): T2 sequence (whole entry)
# [11] = target: T6, M-phase inducer phosphatase 3 (Homo sapiens, UniProt P30307); test: Inhibition of recombinant human Cdc25C using OMFP as substrate preincubated for 5 to 8 mins and measured every 5 mins 60 mins by fluorescence based assay
# T6 sequence (P30307 whole entry): T1 sequence (whole entry)
Compound,IC50 (MCF7),IC50 [1],inhibition [2],IC50 (KB),IC50 (A549),inhibition [3],IC50 (MDA-MB-231),inhibition [4],IC50 [5],Ratio IC50 (Homo sapiens [6]),Ratio IC50 [7],IC50 [8],Ratio IC50 (Homo sapiens [9]),IC50 [10],IC50 [11]
O=C1C(Cl)=C(NCCN2CCOCC2)C(=O)c2ncccc21,1 µM,3.31 µM,Active,4.89 µM,2.76 µM,48.4%,4.97 µM,Active,4.87 µM,,,,,,
Cc1ccc(Cn2cc(CNC3=C(Cl)C(=O)c4cccnc4C3=O)nn2)cc1,4.71 µM,6 µM,Active,5.05 µM,3.92 µM,74.4%,4.63 µM,Active,6.81 µM,15,9,1390 nM,6,530 nM,90 nM
N#Cc1ccccc1Cn1cc(CNC2=C(Cl)C(=O)c3cccnc3C2=O)nn1,4.7 µM,2.18 µM,Active,5.13 µM,4.5 µM,57.2%,4.86 µM,Active,9.02 µM,,,2790 nM,,1200 nM,420 nM
N#Cc1cccc(Cn2cc(CNC3=C(Cl)C(=O)c4cccnc4C3=O)nn2)c1,4.84 µM,6.43 µM,Active,5.01 µM,4.92 µM,69.1%,4.9 µM,Active,11.6 µM,,,1000 nM,,540 nM,210 nM
CC(=O)O[C@H]1C(=O)[C@@]2(C)[C@H]([C@H](OC(=O)c3ccccc3)[C@]3(O)C[C@H](OC(=O)[C@H](O)[C@@H](NC(=O)c4ccccc4)c4ccccc4)C(C)=C1C3(C)C)[C@]1(OC(C)=O)CO[C@@H]1C[C@@H]2O [PACLITAXEL],,36.5 µM,,,0.00752 µM,,,,3.15 µM,,,,,,
